Data on 13 compounds can be found in paper PMC7865276, “Chemical Constituents of the Bulbs of Scilla peruviana and Their Pancreatic Lipase Inhibitory Activity” (International Journal of Molecular Sciences, 2021).

One assay deals with pancreatic lipase. Also noted: method as in PMID 25389058. The following applies: cited from earlier work.
The next assay deals with ddY mice. Put plainly: serum TG levels in intralipid (soybean oil)-loaded mice. The assay is classed as in vivo. As to conditions: for serum TG levels: 15 min before intralipid loading, 120 min after intralipid, mean ± S.E.M., n = 5. As for the experimental part: Male ddY mice, 5 weeks old, were purchased from Japan Laboratory Animals and maintained in the animal facility of the Tokyo University of Pharmacy and Life Sciences. The animals were housed in cages under controlled temperature (23 ± 2 °C) and a 12 h light-dark cycle. The mice were allowed free access to breeding food and water. All experiments were approved by the Tokyo University of Pharmacy and Life Sciences Animal Use Committee (approval number: P17-84, date of approval: 24 April 2017).
After 5 weeks, mice were fasted overnight and randomly divided into five groups (n = 5). The body weight of each mouse was measured (24.0–30.7 g/body). 0.5% Carboxymethyl cellulose (CMC; Wako Pure Chemical Industries), cetilistat (Tokyo Kasei, purity > 98.0%; 180 mg/kg), or compound 6 (150 or 300 mg/kg) were prepared for test samples and the intralipid (soybean oil 20% emulsion, 20 mL/kg, Sigma-Aldrich) was used for the high-fat diet. Single dose of 0.5% CMC, cetilistat, and compound 6 (150 or 300 mg/kg) were orally administered to mice in each group (n = 5) 15 min before the intralipid loading. Blood samples were collected from the abdominal vena cava 120 min after the intralipid-loaded treatment and centrifuged (700× g for 10 min) to obtain serum samples. The TG levels in serum were measured using a commercially available kit (Wako Triglyceride E-Test kit, Wako Pure Chemical Industries).

Assay [1] concerns the target T1, lipase from porcine pancreas, TYPE II (Sus scrofa, UniProt P00591).
T1 construct: lipase from porcine pancreas, TYPE II; purchased Sigma-Aldrich; host or cells: porcine pancreas (tissue preparation)
T1 sequence (P00591 1-450): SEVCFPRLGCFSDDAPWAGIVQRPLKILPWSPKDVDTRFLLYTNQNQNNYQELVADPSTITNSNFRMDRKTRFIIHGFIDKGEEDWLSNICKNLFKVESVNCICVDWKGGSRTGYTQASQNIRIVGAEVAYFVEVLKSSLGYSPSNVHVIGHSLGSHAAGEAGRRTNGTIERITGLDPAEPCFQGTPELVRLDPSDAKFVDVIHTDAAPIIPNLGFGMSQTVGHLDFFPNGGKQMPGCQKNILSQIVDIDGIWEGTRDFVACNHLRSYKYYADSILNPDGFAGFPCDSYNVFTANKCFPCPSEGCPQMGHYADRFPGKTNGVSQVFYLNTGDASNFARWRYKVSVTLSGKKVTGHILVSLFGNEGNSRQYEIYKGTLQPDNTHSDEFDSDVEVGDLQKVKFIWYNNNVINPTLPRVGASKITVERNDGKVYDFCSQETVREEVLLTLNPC
Put plainly: pancreatic lipase inhibitory activity (Lipase Kit S, BALB substrate). The assay is classed as biochemical. As to conditions: for pancreatic lipase inhibitory activity (in words): in vitro, 0.45, 0.90 and 4.5 mM. As for the experimental part:
The pancreatic lipase activity of each test sample was measured by a modified method using a commercially available kit (Lipase Kit S, Dainippon Pharmaceutical). The purities of test samples were confirmed by HPLC analysis (Figure S6 in Supplementary Materials). Cetilistat was used as a positive control at 0.1, 1.0, and 10 μM. Test sample was dissolved in EtOH–H2O (1:1) and diluted to concentrations of 0.45, 0.90, and 4.5 mM, respectively. Lipase (lipase from porcine pancreas, TYPE II, 100–500 units/mg) was purchased from Sigma-Aldrich. Briefly, test sample was mixed with enzyme buffer, and incubated for 5 min at 30 °C. After incubation, 2,3-dimercapto-1-propanol tributyrate (BALB) as substrate was added and the enzyme reaction was proceeded for 30 min at 30 °C. Lipase activity was determined by measuring the absorbance of the resulting 5-thio-2-nitrobenzoate anion at 412 nm using a microplate reader. The inhibition rate was calculated by the following formula: Inhibition rate (%) = [1 − (ΔAsample − ΔAblank)/(ΔAcontrol − ΔAblank)] × 100. The inhibitory concentration (IC50) was calculated by log-Probit analysis.

Assay [2] deals with cyclic adenosine monophosphatase (cAMP) phosphodiesterase. On the set-up: method as in PMID 8149459, doi:10.1246/cl.1992.1863. As to conditions: cited from earlier work.
A further assay concerns mice. Also noted: method as in earlier work. The following applies: oral administration; cited from earlier work.
Where [3] appears, read: mean ± S.E.M. of three experiments in triplicate, tested at 0.45, 0.90, 4.5 mM.

Take `CC(C)=CCCC(C(=O)O)C1CCC2(C)C3CCC4C(C)(CCC(O)C4(C)C)C3=CCC12C` (stereo not drawn) [3β-Hydroxylanosta 9,24-dien-21-oic acid]: in the assay on pancreatic lipase, the “pancreatic lipase inhibition (in words)” value is listed as “inhibit the pancreatic lipase activity”. One may read the IC50 as the concentration needed to halve the response being measured. Low readings indicate higher potency, high ones lower potency. On to `CCCCCCCCCCCCCCCCOc1nc2ccc(C)cc2c(=O)o1` [Cetilistat, reference compound], for which, in the assay on ddY mice (180 mg/kg oral), the “serum TG levels” value came to 130.2 ± 23.4 mg/dL. Also, the IC50 in assay [1] (positive control, tested at 0.1, 1.0, 10 μM, mean ± S.E.M.) turned out to be 1.43 ± 0.052 µM. Regarding `COC(=O)/C(C)=C/[C@H]1[C@H](OC)O[C@H]2C[C@@]3(C)C4=C(CC[C@]3(C)[C@@]2(O)[C@@H]1C)[C@@]1(C)CC[C@H](O[C@@H]2O[C@H](CO)[C@@H](O)[C@H](O)[C@H]2O[C@@H]2O[C@H](CO)[C@@H](O)[C@H](O)[C@H]2O[C@@H]2O[C@@H](C)[C@H](O)[C@@H](O)[C@H]2O)C(C)(C)[C@@H]1CC4` [Compound 2, 23α-methyl-peruvianoside A], the “pancreatic lipase inhibitory activity (in words)” value in assay [1] is reported as “significant pancreatic lipase inhibitory activity in a concentration-dependent manner”. The same compound had a 50% inhibitory concentration (IC50) in assay [1] (setting [3]) of 840 ± 29 µM. On to `COC(=O)/C(C)=C/[C@H]1[C@@H](OC)O[C@H]2C[C@@]3(C)C4=C(CC[C@]3(C)[C@@]2(O)[C@@H]1C)[C@@]1(C)CC[C@H](O[C@@H]2O[C@H](CO)[C@@H](O)[C@H](O)[C@H]2O[C@@H]2O[C@H](CO)[C@@H](O)[C@H](O)[C@H]2O[C@@H]2O[C@@H](C)[C@H](O)[C@@H](O)[C@H]2O)C(C)(C)[C@@H]1CC4` [Compound 3, 23β-methyl-peruvianoside A], for which the “pancreatic lipase inhibitory activity (in words)” value in assay [1] is recorded as “significant pancreatic lipase inhibitory activity in a concentration-dependent manner”. Further, half-maximal inhibition in assay [1] (setting [3]) (IC50) required 590 ± 20 µM. In assay [1] (setting [3]), `COC(=O)/C(C)=C/[C@H]1[C@H](O)O[C@H]2C[C@@]3(C)C4=C(CC[C@]3(C)[C@@]2(O)[C@@H]1C)[C@@]1(C)CC[C@H](O[C@@H]2O[C@H](CO)[C@@H](O)[C@H](O)[C@H]2O[C@@H]2O[C@H](CO)[C@@H](O)[C@H](O)[C@H]2O[C@@H]2O[C@@H](C)[C@H](O)[C@@H](O)[C@H]2O)C(C)(C)[C@@H]1CC4` [Compound 4, peruvianoside A] returned an IC50 of 1420 ± 40 µM. The “cAMP phosphodiesterase inhibitory activity (in words)” value in assay [2] is “show cyclic adenosine monophosphatase (cAMP) phosphodiesterase inhibitory activity”. `COC(=O)/C(C)=C/[C@H]1[C@H](O)O[C@H]2C[C@@]3(C)C4=C(CC[C@]3(C)[C@@]2(O)[C@@H]1C)[C@@]1(C)CC[C@H](O[C@@H]2O[C@H](CO)[C@@H](O)[C@H](O)[C@H]2O[C@@H]2O[C@H](CO)[C@@H](O)[C@H](O)[C@H]2O[C@@H]2O[C@@H](C)[C@H](O)[C@@H](O)[C@H]2O)[C@](C)(CO)[C@@H]1CC4` [Compound 5, peruvianoside B] had an IC50 in assay [1] (setting [3]) of 1400 ± 35 µM.

In the case of `CC1CC2(CC(C)C3(CCC4(C)C5=C(CCC43C)C3(C)CCC(OC4OC(COC6OCC(O)C(O)C6OC6OC(CO)C(O)C(O)C6OC6OC(C)C(O)C(O)C6O)C(O)C(O)C4O)C(C)(CO)C3CC5)O2)OC1=O` [Compound 6, (23S,25R)-3β,31-dihydroxy-17α,23-epoxy-5α-lanost-8-en-23,26-olactone3β-O-[O-α-L-rhamnopyranosyl-(1→2)-O-β-D-gluco-pyranosyl-(1→2)-O-α-L-arabinopyranosyl-(1→6)-O-β-D-glucopyranoside]], in the assay with ddY mice (300 mg/kg single oral dose), the “serum TG levels” value is 90.9 ± 16.2 mg/dL. Further, the “effect on serum triglyceride levels (in words)” value in the assay with ddY mice (oral, 150 or 300 mg/kg, soybean oil-loaded mice) is reported as “reduced serum triglyceride levels in a dose-dependent manner”. Besides, the “pancreatic lipase inhibitory activity (in words)” value in assay [1] was “significant pancreatic lipase inhibitory activity in a concentration-dependent manner”. The same compound displayed an IC50 in assay [1] (setting [3]) of 810 ± 29 µM. Turning to `CC1CC2(CC(C)C3(CCC4(C)C5=C(CCC43C)C3(C)CCC(OC4OC(COC6OCC(O)C(O)C6OC6OC(CO)C(O)C(O)C6OC6OC(C)C(O)C(O)C6O)C(O)C(O)C4O)C(CO)(CO)C3CC5)O2)OC1=O` [Compound 7, (23S,25R)-3β,30,31-trihydroxy-17α,23-epoxy-5α-lanost-5-en-23,26-olactone3-O-[O-α-L-rhamno-pyranosyl-(1→2)-O-β-D-glucopyranosyl-(1→2)-O-α-L-arabinopyranosyl-(1→6)-O-β-D-glucopyranoside]], the IC50 in assay [1] (setting [3]) was determined as 1100 ± 15 µM. As to `CCC(=O)[C@@H]1C[C@@H](C)[C@]2(CC[C@@]3(C)C4=C(CC[C@@]32C)[C@@]2(C)CC[C@H](O[C@@H]3O[C@H](CO[C@@H]5OC[C@H](O)[C@H](O)[C@H]5O[C@@H]5O[C@H](CO)[C@@H](O)[C@H](O[C@@H]6O[C@H](CO)[C@@H](O)[C@H](O)[C@H]6O)[C@H]5O[C@@H]5O[C@@H](C)[C@H](O)[C@@H](O)[C@H]5O)[C@@H](O)[C@H](O)[C@H]3O)[C@](C)(CO)[C@@H]2CC4)O1` [Compound 9, 15-deoxy-eucosterol3β-[O-β-D-glucopyranosyl-(1→3)-O-[α-L-rhamnopyranosyl-(1→2)]-β-D-glucopyranosyl-(1→2)-O-α-L-arabinopyranosyl-(1→6)-O-β-D-glucopyranoside]], the IC50 in assay [1] (setting [3]) was 910 ± 23 µM. On to `CCC(=O)[C@@H]1C[C@@H](C)[C@]2(CC[C@@]3(C)C4=C(CC[C@@]32C)[C@@]2(C)CC[C@H](O[C@@H]3O[C@H](CO[C@@H]5OC[C@H](O)[C@H](O)[C@H]5O[C@@H]5O[C@H](CO)[C@@H](O)[C@H](O[C@@H]6O[C@H](CO)[C@@H](O)[C@H](O)[C@H]6O)[C@H]5O[C@@H]5O[C@@H](C)[C@H](O)[C@@H](O)[C@H]5O)[C@@H](O)[C@H](O)[C@H]3O)C(CO)(CO)[C@@H]2CC4)O1` [Compound 10, 15-deoxy-30-hydroxyeucosterol3β-[O-β-D-glucopyranosyl-(1→3)-O-[α-L-rhamnopyranosyl-(1→2)]-β-D-glucopyranosyl-(1→2)-O-α-L-arabinopyranosyl-(1→6)-O-β-D-glucopyranoside]], for which the IC50 in assay [1] (setting [3]) came out at 1130 ± 62 µM. On to `C[C@@H]1O[C@@H](O[C@H]2[C@H](O[C@H]3[C@H](OC[C@H]4O[C@@H](O[C@H]5CC[C@]6(C)C7=C(CC[C@H]6[C@@]5(C)CO)[C@]5(C)CC[C@@]6(OC(=O)C[C@H]6C)[C@@]5(C)CC7)[C@H](O)[C@@H](O)[C@@H]4O)OC[C@H](O)[C@@H]3O)O[C@H](CO)[C@@H](O)[C@@H]2O[C@@H]2O[C@H](CO)[C@@H](O)[C@H](O)[C@H]2O)[C@H](O)[C@H](O)[C@H]1O` [Compound 11, scillanostaside G], for which, in assay [1], the “pancreatic lipase inhibitory activity (in words)” value is “inhibited the pancreatic lipase activity in an inverted dose-dependent manner”. The compound further displayed a half-inhibitory concentration (IC50) in assay [1] (setting [3]) of over 4500 µM. Turning to `C=C1C(O)CCC2C1(C)CCC1C2(C)CCC2(C)C3C(C(C)C)CCC3(C)CCC12C` (stereo not drawn) [cymbopogonol], in the assay on mice, the “effect on serum TG levels (in words)” value is given as “reduced serum TG levels in mice”. For the compound scillasaponin B, the “cAMP phosphodiesterase inhibitory activity (in words)” value in assay [2] is on record as “show cyclic adenosine monophosphatase (cAMP) phosphodiesterase inhibitory activity”.
